# Where “and” joins values, the source holds several entries; their conditions need not be identical. Equal entries are not always repeated. Where two headings read alike, the source gives them in different places.
# What was measured:
# [1] = test system: MCF-7 human mammary carcinoma cell line; type: cell-based
# Excerpt: (§1) MXT estrogen-independen mouse mammary carcinoma cell line was obtained from Dr. Gunter Berndhart, University of Regensburg, Germany. All the other cell lines used in the determination of the antiproliferative activity of the compounds of this invention were obtained from the American Type Culture Collection (ATCC).
# (§2) For the evaluation of the activity of the analogs, a colorimetric cytotoxicity assay in microtitration plates was used based on quantification of biomass by staining cells with crystal violet, which correlates very well with determination of cell numbers. (Reile et al.; Anal. Biochem. 187, 262-267, 1990; Bernhardt G. et al, J. Cancer Res. Clin. Oncol. (1992), 118, 35-43; Spruss Th. et al, J. Cancer Res. Clin. Oncol 117, 435-443, 1991; Gillies, R. J., Anal. Biochem. 159, 109-113, 1986; Kueng, W. et al.; Anal. Biochem., 182 16-19, 1989.)
# (§3) One to two days after seeding cells in 96-well plates the culture medium is exchanged with fresh medium containing the compounds to be tested and fresh medium only for the control cultures. After varying time of incubation, cells are fixed with glutaric dialdehyde and stored under […] at 4° C. until the end of the experiment. Cells are stained with crystal violet and bound stain is extracted with 70% aqueous EtOH. Optical density is measured with EIA Reader (Bio-Tek Instruments) or Biomek 1000 (Beckman) at 590 nm or 600 nm, respectively. Each data point represents the mean value of eight culture wells. T/C values are calculated as T/C=(T-C0)/(C-C0) where T=optical density of treated cultures, C=optical density of control (untreated) cultures, C0 =optical density of cultures at the start of incubation (t=0).
# Cells were incubated in IMEM media containing 5% Hl:DCC-FBS (heat inactivated dextran coated charcoal treated fetal bovine serum) on 96 well plates. Relative cell number in treated and control plates was determined by the crystal violet staining method and was expressed as T/C values where T/C=T-C0 /C-C0×100 [T=absorbance of treated cultures, C= absorbance of control cultures, C0 =absorbance of cultures at the start of incubation (t=0). The measured absorbance is proportionate to the cell number.]
# [2] = test system: MXT estrogen independent mouse mammary carcinoma cell line; test: In vitro cytotoxic activity, crystal violet colorimetric assay on MXT; type: cell-based
# Excerpt: as §1, §2, §3
# [3] = test system: estrogen independent MXT mouse mammary cancers; test: Treatment of estrogen independent MXT mouse mammary cancers (KS-49); type: in vivo
# Excerpt: In order to compare the tumor inhibitory activity of cytotoxic doxorubicin derivative, Q6 and its targeted cytotoxic peptide conjugate, Q6^14 gL as well as the well known antineoplastic agent, DOX and to determine the optimal way of administration and the nontoxic doses, LH-RH receptor positive MXT (3.2) ovex tumor pieces (1 mm^3) were implanted s. c. in female B6 D2 F1 mice. One day after transplantation the mice were randomly divided into groups of five animals and the treatment started. The compounds were dissolved in 0.1% trifluoroacetic acid (pH 2) and given intraperitoneally.
# [4] = Table 17-1; 3 × 10^-8 M; incubation 70 hr
# [5] = Table 17-1; 3 × 10^-8 M; incubation 120 hr
# [6] = Table 17-1; 3 × 10^-9 M; incubation 70 hr
# [7] = Table 17-1; 3 × 10^-9 M; incubation 120 hr
# [8] = Table 17-1; 10^-8 M; incubation 70 hr
# [9] = Table 17-1; 10^-8 M; incubation 120 hr
# [10] = Table 17-1; 3 × 10^-10 M; incubation 70 hr
# [11] = Table 17-1; 3 × 10^-10 M; incubation 120 hr
# [12] = Table 17-1; 10^-9 M; incubation 70 hr
# [13] = Table 17-1; 10^-9 M; incubation 120 hr
smiles,measurement,setting,value
"COc1cccc2c1C(=O)c1c(O)c3c(c(O)c1C2=O)C[C@@](O)(C(=O)CO)C[C@@H]3O[C@H]1C[C@H](N2CCCCC2)[C@H](O)[C@H](C)O1 [AN-183, Piperidino-DOX]",T/C Value,[1]; [4],4
same,T/C Value,[1]; [5],0
same,T/C Value,[1]; [6],114
same,T/C Value,[1]; [7],109
same,T/C Value,[1]; [8],70
same,T/C Value,[1]; [9],67
"COc1cccc2c1C(=O)c1c(O)c3c(c(O)c1C2=O)C[C@@](O)(C(=O)CO)C[C@@H]3O[C@H]1C[C@H](N2Cc3ccccc3C2)[C@H](O)[C@H](C)O1.O=C(O)C(F)(F)F [Compound Q3, 3'-deamino-3'-(isoindoline-2""-yl)doxorubicin]",T/C Value,"[1]; Table 17-1, 10^-8 M; incubation 70 hr",-11
same,T/C Value,"[1]; Table 17-1, 10^-8 M; incubation 120 hr",-29
same,T/C Value,[1]; [4],86
same,T/C Value,[1]; [5],77
same,T/C Value,[1]; [8],118
same,T/C Value,[1]; [9],108
"COc1cccc2c1C(=O)c1c(O)c3c(c(O)c1C2=O)C[C@@](O)(C(=O)CO)C[C@@H]3O[C@H]1C[C@H](N2CC=CC2)[C@H](O)[C@H](C)O1.O=C(O)C(F)(F)F [Compound Q4, 3'-deamino-3'-(3""-pyrroline-1""-yl)doxorubicin]",T/C Value,[1]; [5],-5
same,T/C Value,[1]; [6],106
same,T/C Value,[1]; [7],97
same,T/C Value,[1]; [8],72
same,T/C Value,[1]; [9],65
"COc1cccc2c1C(=O)c1c(O)c3c(c(O)c1C2=O)C[C@@](O)(C(=O)CO)C[C@@H]3O[C@H]1C[C@H](N2CCC(=O)C2)[C@H](O)[C@H](C)O1.O=C(O)C(F)(F)F [Compound Q5, 3'-deamino-3'-(3""-pyrrolidone-1""-yl) doxorubicin]",T/C Value,[1]; [4],-28
same,T/C Value,[1]; [5],-10
same,T/C Value,[1]; [6],87
same,T/C Value,[1]; [7],67
same,T/C Value,[1]; [8],30
same,T/C Value,[1]; [9],25
"COc1cccc2c1C(=O)c1c(O)c3c(c(O)c1C2=O)C[C@@](O)(C(=O)CO)C[C@@H]3OC1CC(N2C=CCC2)C(O)C(C)O1 (some centres unmarked) [Compound Q6, 3'-deamino-3'-(2""-pyrroline-1""-yl)doxorubicin]",T/C Value,[1]; [6],-18
same,T/C Value,[1]; [7],-9
same,T/C Value,[1]; [10],50
same,T/C Value,[1]; [11],26
same,T/C Value,[1]; [12],-3
same,T/C Value,[1]; [13],2
same,T/C Value on MCF-7 Cell Line,[1]; Table 18-1; 3 × 10^-9 M; 70 hr,-18
same,T/C Value on MCF-7 Cell Line,[1]; Table 18-1; 3 × 10^-9 M; 120 hr,-9
same,T/C Value on MCF-7 Cell Line,[1]; Table 18-1; 10^-9 M; 70 hr,-3
same,T/C Value on MCF-7 Cell Line,[1]; Table 18-1; 10^-9 M; 120 hr,2
same,T/C Value on MCF-7 Cell Line,[1]; Table 18-1; 10^-10 M (by column position); 70 hr,50
same,T/C Value on MCF-7 Cell Line,[1]; Table 18-1; 10^-10 M (by column position); 120 hr,26
same,T/C value on MXT cell line,"[2]; 3 × 1^-11 M (so in the source), 28 hr",90
same,T/C value on MXT cell line,"[2]; 3 × 1^-11 M (so in the source), 69 hr",52
same,T/C value on MXT cell line,"[2]; 3 × 10^-10 M, 28 hr",56
same,T/C value on MXT cell line,"[2]; 3 × 10^-10 M, 69 hr",-13
same,T/C value on MXT cell line,"[2]; 10^-10 M, 28 hr",78
same,T/C value on MXT cell line,"[2]; 10^-10 M, 69 hr",6
same,Average survival,"[3]; 0.2 nmol/inj. i.p., total 21 nmol (Groups 5 and 9)",13.0 days
same,Average survival,"[3]; 0.5 nmol/inj. i.p., 5 inj./week, total 7.5 nmol (Groups 3 and 7)",19.6 days
same,Toxicity,"[3]; 1.25 nmol on day 1, 2, 7 and 8",strong toxicity
same,Average survival,"[3]; 1.25 nmol/inj. i.p., 2 inj./week, day 1, 2, 7 and 8 (Groups 2 and 6)",17.4 days and 17.5 days
same,Average survival,"[3]; 0.25 * nmol/inj. i.p. (dose raised day 9 to 12), total 9.5 nmol (Groups 4 and 8)",14.6 days
same,Average final tumor volume,"[3]; Group 2, 1.25 nmol on day 1, 2, 7 and 8, at day 16",1065 mm^3
"COc1cccc2c1C(=O)c1c(O)c3c(c(O)c1C2=O)C[C@@](O)(C(=O)CO)C[C@@H]3O[C@H]1C[C@H](N2CCCC(=O)C2)[C@H](O)[C@H](C)O1.O=C(O)C(F)(F)F [Compound Q7, 3'-deamino-3'-(3""-piperidone-1""-yl) doxorubicin]",T/C Value,[1]; [4],59
same,T/C Value,[1]; [5],43
same,T/C Value,[1]; [6],96
same,T/C Value,[1]; [7],97
same,T/C Value,[1]; [8],80
same,T/C Value,[1]; [9],70
"COc1cccc2c1C(=O)c1c(O)c3c(c(O)c1C2=O)C[C@@](O)(C(=O)CO)C[C@@H]3O[C@H]1C[C@H](N2C=CCCC2)[C@H](O)[C@H](C)O1.O=C(O)C(F)(F)F [Compound Q8, 3'-deamino-3'-(1"",3""-tetrahydropyridine-1""-yl)doxorubicin]",T/C Value,[1]; [6],69
same,T/C Value,[1]; [7],62
same,T/C Value,[1]; [10],96
same,T/C Value,[1]; [11],99
same,T/C Value,[1]; [12],88
same,T/C Value,[1]; [13],93

# Source: patent publication US6184374A, “Targeted cytotoxic anthracycline analogs” (priority 1998, dated 2001)
